Experimental data: US20260365628A1, “SUBSTITUTED 3,4-DIHYDROQUINOLINONE INHIBITORS OF TSHR” (Septerna, Inc., priority 2022, published 2026)

Biological target: T1, hTSHR (Homo sapiens, UniProt P16473)
T1 construct: expressed in transfected cells
Experiment: hTSHR TR-FRET cAMP Assay (inhibition of M22-stimulated cAMP production)
Assay type: cell-based
Settings: Expi293F Inducible cells stably expressing hTSHR; cAMP HTRF; stimulated with EC80 of anti-TSHR antibody M22; 15 min compound preincubation, 30 min at 37° C.; read-out: Activity (IC50 bins)
Description: Assays were performed using Expi293F Inducible cells (Invitrogen) stably expressing hTSHR via a pcZeo TetO DNA plasmid. Cell lines were maintained in suspension in Expi293 Expression Medium (ThermoFisher Scientific) supplemented with 10 µg/mL Blasticidin and 10 μg/mL Zeocin and incubated at 37° C., 8% CO2, with shaking. hTSHR cells were incubated overnight at 32° C., 5% C02, with shaking, but […] Doxycycline. Assay-ready aliquots were prepared by harvesting each cell type separately 24-hours post-induction. Cells were pelleted at 4° C., resuspended in Expi293 Expression media+10% DMSO, aliquoted, and kept frozen at −80° C. until ready for use.
For the assay, concentration-response curves of test and reference compounds were added to 384-well plates using an Echo 650 liquid handler (Beckman Coulter) and backfilled with DMSO to a final concentration of 0.5%. cAMP was measured using the cisbio cAMP Gs dynamic HTRF kit (PerkinElmer) according to manufacturer instructions. Aliquots of frozen hTSHR cells were quickly thawed and washed with phosphate-buffered saline (Sigma-Aldrich) to remove media and DMSO. The cells were resuspended in kit-supplied Stimulation Buffer at 0.8×10^6 cells/mL. 7.5 μL of the hTSHR cell dilution were added to each well of the assay plate and incubated with the compounds for 15 minutes in a 37 C, 0% CO2 incubator. 2.5 μL of Vehicle control or an EC80 concentration of recombinant human anti-TSHR antibody (M22, Creative Biolabs) was added to stimulate cAMP production. Cells were incubated with for 30 minutes at 37° C., 0% CO2. Following this incubation, the cells were lysed and accumulated cAMP was detected through the addition of kit-supplied lysis buffer containing d2-reagent and Eu-cryptate antibody. The HTRF signal was quantified using a BMG Clariostar plate reader optimized for HTRF assays. The HTRF ratio was determined by dividing the signal output at […] by that at 620 nm. Data were normalized to the signal produced by the EC80 concentration of either M22 or FSH (0% inhibition) and vehicle (no agonist, 100% inhibition).

T1 sequence (P16473 21-764): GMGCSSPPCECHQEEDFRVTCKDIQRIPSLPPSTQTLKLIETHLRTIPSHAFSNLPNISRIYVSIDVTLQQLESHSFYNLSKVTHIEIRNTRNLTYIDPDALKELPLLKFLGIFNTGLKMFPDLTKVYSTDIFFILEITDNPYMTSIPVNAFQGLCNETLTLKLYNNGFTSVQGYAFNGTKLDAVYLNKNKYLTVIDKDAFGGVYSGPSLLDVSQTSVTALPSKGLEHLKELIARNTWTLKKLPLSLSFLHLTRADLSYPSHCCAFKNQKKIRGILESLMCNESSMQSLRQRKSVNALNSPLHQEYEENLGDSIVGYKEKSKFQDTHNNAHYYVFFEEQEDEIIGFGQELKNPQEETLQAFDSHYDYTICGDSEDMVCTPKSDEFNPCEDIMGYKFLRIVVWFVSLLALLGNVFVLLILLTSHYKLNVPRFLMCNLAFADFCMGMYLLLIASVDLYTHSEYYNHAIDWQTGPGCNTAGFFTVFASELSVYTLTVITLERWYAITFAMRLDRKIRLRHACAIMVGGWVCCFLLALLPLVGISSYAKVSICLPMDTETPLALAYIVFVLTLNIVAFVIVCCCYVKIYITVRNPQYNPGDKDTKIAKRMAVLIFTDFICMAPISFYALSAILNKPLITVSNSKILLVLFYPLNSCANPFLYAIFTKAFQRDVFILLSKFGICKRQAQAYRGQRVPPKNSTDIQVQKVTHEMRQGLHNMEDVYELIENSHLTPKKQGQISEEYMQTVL

Row | SMILES | IC50 [nM]
1 | C[C@H]1Oc2cc(NC(=O)OC3CCCC3)ccc2N(Cc2cccc(C(F)(F)F)n2)C1=O [Example 304, cyclopentyl N-[(2R)-2-methyl-3-oxo-4-{[6-(trifluoromethyl)pyridin-2-yl]methyl}-2H-1,4-benzoxazin-7-yl]carbamate] | < 100
2 | CC(O)c1cccc([C@H](C)n2c(=O)cnc3cc(NC(=O)NC(C)(C)C)ccc32)c1 (stereo partly drawn) [Example 146, 1-(tert-butyl)-3-(1-((1S)-1-(3-(1-hydroxy-ethyl)phenyl)eth-yl)-2-oxo-1,2-dihydroquinoxalin-6-yl)urea] | > 1000
3 | CC(C)(C)NC(=O)Nc1cc2c(cc1F)N(Cc1ccccc1)C(=O)CC2 [Example 65, 1-(1-benzyl-7-fluoro-2-oxo-1,2,3,4-tetrahydroquinolin-6-yl)-3-(tert-butyl)urea] | 100 to 1000
4 | CC(C)(C)CNC(=O)Nc1ccc2c(c1)ncc(=O)n2Cc1cccc(OC(F)(F)F)c1 [Example 240, 1-neopentyl-3-(2-oxo-1-(3-(trifluoromethoxy)benzyl)-1,2-dihydroquinoxalin-6-yl)urea] | 100 to 1000
5 | C[C@@H](c1cccc(OC(F)(F)F)c1)n1c(=O)cnc2cc(NC(=O)OC3CCCC3)ccc21 [Example 359, cyclopentyl (S)-(2-oxo-1-(1-(3-(trifluoromethoxy)phenyl)ethyl)-1,2-dihydroquinoxalin-6-yl)carbamate] | < 100
6 | C[C@@H](c1cc(OC(F)(F)F)c(F)cc1F)n1c(=O)cnc2cc(NC(=O)NC(C)(C)C)ccc21 [Example 151, (S)-1-(tert-butyl)-3-(1-(1-(2,4-difluoro-5-(trifluoromethoxy)phe-nyl)ethyl)-2-oxo-1,2-dihydroquinoxalin-6-yl)urea] | 100 to 1000
7 | CC(C)(C)NC(=O)Nc1ccc2c(c1)ncc(=O)n2Cc1cccc(Cl)c1 [Example 89, 1-(tert-butyl)-3-(1-(3-chlorobenzyl)-2-oxo-1,2-dihydroquinoxalin-6-yl)urea] | 100 to 1000
8 | C[C@H]1Oc2cc(NC(=O)NC(C)(C)C)ccc2N([C@@H](C)c2cc(F)ccc2F)C1=O [Example 188, 1-(tert-butyl)-3-((R)-4-((S)-1-(2,5-difluorophenyl)ethyl)-2-methyl-3-oxo-3,4-dihydro-2H-benzo[b][1,4]oxazin-7-yl)urea] | < 100
9 | C[C@@H](c1cccc(CCCC(F)(F)F)c1)n1c(=O)cnc2cc(NC(=O)NC(C)(C)C)ccc21 [Example 108, (S)-1-(tert-butyl)-3-(2-oxo-1-(1-(3-(4,4,4-trifluorobutyl)phenyl)ethyl)-1,2-dihydroquinoxalin-6-yl)urea] | 100 to 1000
10 | C[C@H]1Oc2cc(NC(=O)NC3(C(F)(F)F)CCCC3)ccc2N([C@@H](C)c2ccccc2)C1=O [Example 257, 1-((R)-2-methyl-3-oxo-4-((S)-1-phen-ylethyl)-3,4-dihydro-2H-benzo[b][1,4]oxazin-7-yl)-3-(1-(trifluoromethyl)-cyclopentyl)urea] | < 100
11 | CC(C)(C)NC(=O)Nc1ccc2c(c1)CCC(=O)N2Cc1ccccc1Cl [Example 8, 1-(tert-butyl)-3-(1-(2-chlorobenzyl)-2-oxo-1,2,3,4-tetrahydroquinolin-6-yl)urea] | 100 to 1000
12 | CC(C)(C)NC(=O)Nc1ccc2c(n1)CCC(=O)N2Cc1ccccc1 [Example 67, 1-(5-benzyl-6-oxo-5,6,7,8-tetrahydro-1,5-naphthyridin-2-yl)-3-(tert-butyl)urea] | 100 to 1000
13 | C[C@H]1Oc2cc(NC(=O)NC(C)(C)C)ccc2N(Cc2cccc(C(O)C(F)(F)F)c2)C1=O (stereo partly drawn) [Example 172, 1-(tert-butyl)-3-((2R)-2-methyl-3-oxo-4-(3-(2,2,2-trifluoro-1-hydroxy-ethyl)benzyl)-3,4-dihydro-2H-benzo [b][1,4]oxazin-7-yl)urea] | < 100
14 | C[C@@H](c1cccc([C@@H](O)C(F)(F)F)c1)n1c(=O)cnc2cc(NC(=O)NC(C)(C)C)ccc21 [Example 155, 1-(tert-butyl)-3-(2-oxo-1-((S)-1-(3-((S)-2,2,2-trifluoro-1-hydroxyethyl)phe-nyl)ethyl)-1,2-dihydroquinoxalin-6-yl)urea] | 100 to 1000
15 | C[C@@H](c1cc(Cl)ccc1F)n1c(=O)cnc2cc(NC(=O)NC(C)(C)C)ccc21 [Example 139, (S)-1-(tert-butyl)-3-(1-(1-(5-chloro-2-fluorophenyl)ethyl)-2-oxo-1,2-dihydroquinoxalin-6-yl)urea] | 100 to 1000
16 | CC(C)Oc1cccc([C@H](C)n2c(=O)cnc3cc(NC(=O)NC(C)(C)C)ccc32)c1 [Example 137, (S)-1-(tert-butyl)-3-(1-(1-(3-isopropoxyphenyl)eth-yl)-2-oxo-1,2-dihydroquinoxalin-6-yl)urea] | 100 to 1000

Row | SMILES | IC50 [nM]
17 | C[C@@H](c1cccc(OC(F)(F)F)c1)n1c(=O)cnc2cc(NC(=O)NC3CCC(F)(F)CC3)ccc21 [Example 216] | 100 to 1000
18 | C[C@@H](c1cccc(C2CC2)c1)n1c(=O)cnc2cc(NC(=O)NC(C)(C)C)ccc21 [Example 134, (S)-1-(tert-butyl)-3-(1-(1-(3-cyclopropylphenyl)eth-yl)-2-oxo-1,2-dihydroquinoxalin-6-yl)urea] | 100 to 1000
19 | CCc1nc2cc(NC(=O)NC(C)(C)C)ccc2n(Cc2cccc(OC(F)(F)F)c2)c1=O [Example 295, 1-(tert-butyl)-3-(3-ethyl-2-oxo-1-(3-(trifluoromethoxy)benzyl)-1,2-dihydroquinoxalin-6-yl)urea] | > 1000
20 | CC(C)(C)NC(=O)Nc1ccc2c(c1)CCC(=O)N2Cc1cc(Cl)cc(Cl)c1 [Example 25, 1-(tert-butyl)-3-(1-(3,5-dichlorobenzyl)-2-oxo-1,2,3,4-tetrahydroquinolin-6-yl) urea] | < 100
21 | C[C@H](c1ccccc1)N1C(=O)COc2cc(NC(=O)NC(C)(C)C)ccc21 [Example 34, (R)-1-(tert-butyl)-3-(3-oxo-4-(1-phenylethyl)-3,4-dihydro-2H-benzo[b][1,4]oxazin-7-yl)urea] | 100 to 1000
22 | C[C@H]1Oc2cc(NC(=O)NC(C)(C)C)ccc2N([C@@H](C)c2cccc(Cl)c2)C1=O [Example 183, 1-(tert-butyl)-3-((R)-4-((S)-1-(3-chlorophenyl)ethyl)-2-methyl-3-oxo-3,4-dihydro-2H-benzo[b][1,4]oxazin-7-yl)urea] | < 100
23 | C[C@@H](c1cccc(Cl)c1)N1C(=O)COc2cc(NC(=O)NC(C)(C)C)ccc21 [Example 37, (S)-1-(tert-butyl)-3-(4-(1-(3-chlorophenyl)ethyl)-3-oxo-3,4-dihydro-2H-benzo[b][1,4]oxazin-7-yl)urea] | < 100
24 | CC(C)(C)NC(=O)Nc1ccc2c(c1)ncc(=O)n2Cc1cccc(CCCC(F)(F)F)n1 [Example 95, 1-(tert-butyl)-3-(2-oxo-1-((6-(4,4,4-trifluoro-butyl)pyri-din-2-yl)methyl)-1,2-dihydro-quinoxalin-6-yl)urea] | 100 to 1000
25 | C[C@H]1Oc2nc(NC(=O)NC(C)(C)C)c(C#N)cc2N(Cc2ccccc2)C1=O [Example 362, 1-[(3R)-1-benzyl-7-cyano-3-methyl-2-oxo-3H-pyrido[2,3-b][1,4]oxazin-6-yl]-3-tert-butylurea] | 100 to 1000
26 | C[C@@H](c1cccc(OC(F)(F)F)c1)n1c(=O)cnc2c(CO)c(NC(=O)NC(C)(C)C)ccc21 [Example 351, (S)-1-(tert-butyl)-3-(5-(hydroxymethyl)-2-oxo-1-(1-(3-(trifluoromethoxy)phenyl)ethyl)-1,2-dihydroquinoxalin-6-yl)urea] | > 1000
27 | CC(c1cccc(CCOCc2ccncc2)c1)n1c(=O)cnc2cc(NC(=O)NC(C)(C)C)ccc21 (stereo not shown) [Example 250, 1-(tert-butyl)-3-(2-oxo-1-(1-(3-(2-(pyridin-4-ylmethoxy)ethyl)phenyl)ethyl)-1,2-dihydro-quinoxalin-6-yl)urea] | > 1000
28 | CC(C)(C#N)CNC(=O)Nc1ccc2c(c1)ncc(=O)n2Cc1cccc(OC(F)(F)F)c1 [Example 241, 1-(2-cyano-2-methylpropyl)-3-(2-oxo-1-(3-(trifluoromethoxy)benzyl)-1,2-dihydroquinoxalin-6-yl)urea] | > 1000
29 | C[C@@H](c1c(F)cccc1F)n1c(=O)cnc2cc(NC(=O)NC(C)(C)C)ccc21 [Example 140, (S)-1-(tert-butyl)-3-(1-(1-(2,6-difluorophenyl)ethyl)-2-oxo-1,2-dihydroquinoxalin-6-yl)urea] | 100 to 1000
30 | Cc1cc2c(cc1NC(=O)NC(C)(C)C)O[C@H](C)C(=O)N2Cc1ccccc1 [Example 332, (R)-1-(4-benzyl-2,6-dimethyl-3-oxo-3,4-dihydro-2H-benzo[b][1,4]oxazin-7-yl)-3-(tert-butyl)urea] | 100 to 1000
31 | C[C@H]1Oc2cc(NC(=O)NC(C)(C)C)ccc2N(Cc2cncc(C(F)(F)F)c2)C1=O [Example 171, (R)-1-(tert-butyl)-3-(2-methyl-3-oxo-4-((5-(trifluoro-methyl)pyridin-3-yl)methyl)-3,4-dihydro-2H-benzo [b][1,4]oxazin-7-yl)urea] | 100 to 1000
